# Test results as given in article PMC12384620, “Hit-to-Lead Studies of Pyrazinylpiperazines against Visceral Leishmaniasis: Pharmacokinetic Profile and In Vivo Efficacy of Potent Compounds against Leishmania infantum” (ACS Pharmacology & Translational Science, 2025).
# Assays:
# [1] = tested on: L. infantum GSK-3A; assay: GSK-3A enzyme inhibition (LANCE TR-FRET); assay type: biochemical; conditions: concentrations up to 30 μM, 50 nM enzyme
# Method: (§1) The following controls were included: protein in 1% DMSO (100% activity), 10 μM AZD-5438 (0% activity), and buffer without enzyme (blank).
# (§2) To detect the progress of the enzymatic reaction, a commercially available TR-FRET-based assay (LANCE TR-FRET, PerkinElmer) was used. In the enzymatic step, purified protein kinase and the peptide substrate were incubated with compounds 1 – 6 for 30 min at 25 °C before the addition of ATP to start the reaction, which was run at 30 °C (2 h for GSK-3A or 1 h 15 min for GSK-3B). […]. […]
# (§3) The fluorescence signal was measured using a CLARIOstar microplate reader (BMG LABTECH) set with an excitation wavelength of 320 nm and an emission wavelength of 665 nm. MARS software (BMG LABTECH) was used to analyze the data obtained after reading each plate. The background fluorescence signal (blank) was subtracted from the fluorescence signal obtained for each reaction, in order to reflect the specific signal of enzymatic activity. The data was then analyzed with the GraphPad Prism v10 software, using the equation “log(inhibitor) vs response - variable slope (four parameters) - Y = Bottom + (Top-Bottom)/(1 + 10̂((LogIC50-X)* HillSlope))” to obtain dose–response curves and determine IC50 values. […]
# [2] = tested on: L. braziliensis; assay: Inhibition of growth of L. braziliensis in THP-1 macrophages; assay type: cell-based; conditions: Leishmania braziliensis
# Excerpt: 1 In Vitro Antileishmanial Potency, Selectivity Index, and ADME Properties of Compounds 1 – 6 | column: L. braziliensis IC50 (μM)^b (SI)^b
# [3] = Metabolic stability in mouse liver microsomes; assay type: in vitro ADME; conditions: pH 7.4, MLM, with NADPH cofactor; for microsomal CLint at 5 μM: read-out: Clint, intrinsic clearance; for half-life at 5 μM: read-out: t1/2, microsomal half-life
# Method: To a microcentrifuge tube was added 1 mg/mL Mouse Liver Microsome (MLM), a NADPH generating system consisting of 1 mM NADP+, 1.5 mM MgCl2, 3.5 mM glucose-6-phosphate and 0.5 U/mL glucose-6-phosphate dehydrogenase, and phosphate buffer (pH 7.4) in a sufficient amount for a total volume of […]. After a 15 min preincubation at 37 °C in a water bath, the enzymatic reactions were started by adding 2 μL of a […] stock solution of each compound to be assessed, reaching a final concentration of 5 μM in the tested compound. , The samples were further incubated at 37 °C under stirring (30 rpm) for predetermined periods (0, 15, 30, 45, and 60 min), and 500 μL chilled MeOH and 500 μL chilled acetonitrile were added before the samples were homogenized and left standing in an ice bath to accelerate protein precipitation. The resulting mixture was centrifugated at 13000 rpm for 15 min at 4 °C, the organic layer was extracted and 2 μL internal standard (clonazepam 5 μM) was added. Finally, the samples were filtered through a PVDF filter (Millex 0.22 μm x 13 mm) and analyzed by HPLC-PDA. ,
# [4] = tested on: L. braziliensis SOD; assay: SOD interaction by differential scanning fluorimetry; assay type: binding, Leishmania braziliensis
# Method: The assays were performed using an Applied Biosystems 7500 Fast RT-PCR system (Applied Biosystems, Foster City, CA, USA), in triplicate, with 96-well PCR plates (BioRad, Hercules, CA, USA) sealed with transparent capping strips (BioRad, Hercules, CA, USA). The plates were centrifugated for 2 min at 2000 rpm at 25 °C. The temperature was then ramped up from 25 to 85 °C, increasing 1 °C per minute, while fluorescence signals were monitored using SYPRO Orange dye, with an excitation wavelength of 492 nm and an emission wavelength of 610 nm.
# The DSF conditions used in this study have been previously described. , Briefly, each well contained 10 μM L. braziliensis Hsp90 or 5 μM L. braziliensis SOD, 1 μL of 5X SYPRO Orange, buffer A (50 mM PBS, 100 mM NaCl, pH 7.0 for L. braziliensis SOD or 50 mM Tris-HCl, 100 mM KCl, pH 8.0 for L. braziliensis Hsp90), and either 1 μL DMSO (5% v/v, negative control) or 1 – 6 (diluted in DMSO). […] Raw fluorescence data was collected using the Applied Biosystems 7500 Fast Software v2.0 and then exported to NAMI for Tm calculation via the first-derivative method. Differences in Tm values (ΔTm) were considered statistically significant when p < 0.05, as determined by the Kruskal–Wallis test followed by Dunn’s post-test for multiple comparisons, performed using GraphPad Prism 10.0 (GraphPad Software, San Diego, CA, USA, www.graphpad.com).
# [5] = PAMPA gastrointestinal tract permeability; assay type: in vitro ADME; conditions: for Papp at 8 h, 0.5 mM: PAMPA-GI, read-out: GI Pe
# Method: A 10 mM solution of each compound in DMSO was prepared and subsequently homogenized in a 5 mL flask with 4.75 mL PBS (pH 6.6) (10 mM). […] 180 μL of a PBS (pH 7.4)/DMSO (95:5) solution were then added to the wells of a 96-well receiver plate, and 5 μL of a L-α-phosphatidylcholine solution (20 mg/mL in dodecane) to the wells of a 96-well donor plate. After 5 min, 180 μL of the solutions containing each compound were added to the wells of the donor plate, in triplicate, and the donor plate was carefully placed over the receiver plate in a “sandwich-like” system, which was left stirring (50 rpm) for 8 h at rt in a sealed vessel containing 10 mL PBS (pH 7.4). Afterward, the donor plate was removed, and the content of the receiver plate was transferred to a UV reading plate, which was read using a microplate reader (SpectraMax 5 – Molecular Devices). A reference sample for the internal correction of the microplate reader was prepared using 180 μL of the PBS (pH 7.4)/DMSO (95:5) solution (adapted from refs and ). The optical density values obtained from the content of the receiver plate were compared with the ones obtained from readings performed with the initial solutions containing each compound, before their addition to the donor plate. […] The optical density values from the receptor plate were compared to those from experimental controls to determine the F a value for each compound, using Microsoft Excel.
# [6] = tested on: L. infantum GSK-3B; assay: GSK-3B enzyme inhibition (LANCE TR-FRET); assay type: biochemical; conditions: concentrations up to 30 μM, 10 nM enzyme
# Method: as §1, §2, §3
SMILES,inhibition of L. infantum GSK-3A [1],IC50 [2],microsomal CLint at 5 μM [3],half-life at 5 μM [3],effect on Tm of L. braziliensis SOD (DSF) ([4]; 100 μM),"Fa, fraction absorbed (GI) [5]","Papp at 8 h, 0.5 mM [5]",inhibition of L. infantum GSK-3B [6],interaction with L. braziliensis SOD (DSF titration curves) ([4]; 100 μM to 12.5 μM)
"O=C(c1ccc(O)cc1)N1CCN(c2cnccn2)CC1 [Compound 2, (4-Hydroxyphenyl)(4-(pyrazin-2-yl)piperazin-1-yl)methanone]",no inhibitory effect,7.6 ± 3.2 µM,0.55 µL/min/mg,5.25 h,failed to exert statistically significant effects,62.71%,2.59 ×10⁻⁶ cm/s,no inhibitory effect,–
"O=C(c1ccc(O)c(Cl)c1)N1CCN(c2cnccn2)CC1 [Compound 1, (3-Chloro-4-hydroxyphenyl)(4-(pyrazin-2-yl)piperazin-1-yl)methanone]",did not exert any inhibition,11.7 ± 0.7 µM,1.23 µL/min/mg,2.36 h,–,99.26%,12.9 ×10⁻⁶ cm/s,did not exert any inhibition,neither of these compounds interacts
